Results reported in patent publication US20240279232A1, “USE OF SUBSTITUTED 5-(4-METHYL-6-PHENYL-4H-BENZO[F]IMIDAZO[1,5-A][1,4] DIAZEPIN-3-YL)-1,2,4-O[…] THE TREATMENT OF INFLAMMATORY CONDITIONS” (priority 2021, published 2024).

Columns and labels:
[1] = system: GABAAR on immortalized mouse microglia; experiment: Automated patch clamp, immortalized mouse microglia; assay type: cell-based; conditions: 1 mM GABA, mouse cells
Mouse microglia [2] = experiment: NO production (Griess assay), LPS/IFNγ-activated mouse microglia; assay type: cell-based; conditions: for Inhibition of NO production (%) Mouse microglia 10 μM: 24 hours, 1 μM GABA, LPS/IFNγ
[3] = system: GABAAR on immortalized human microglia; experiment: Automated patch clamp, immortalized human microglia; assay type: cell-based; conditions: 1 mM GABA, human cells
DOR (δ opioid receptor) = molecular target: T1, DOR (δ opioid receptor) (Homo sapiens, UniProt P41143); experiment: DOR radioligand binding ([3H]-DADLE, HEK293 cell homogenates); conditions: Percent inhibition at 10,000 nM; [3H]-DADLE
T1 construct: expressed in transfected cells; host or cells: HEK293

[4] = system: BZR (benzodiazepine site of GABAAR); experiment: GABAAR/BZR binding, rat brain homogenate with 3H-flunitrazepam; conditions: rat brain homogenate, 3H-flunitrazepam
In short: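 Rat brain homogenate incubated with 3H-flunitrazepam near its Kd, typically 90 min at room temperature in the dark; nonspecific binding defined with 10 μM reference compound. Filtration on PEI-soaked mats, scintillation counting; compounds screened at 10,000 nM, those above 50% displacement taken to concentration–response for Ki by nonlinear regression (n=6).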

KOR (κ opioid receptor) = molecular target: T2, KOR (κ opioid receptor) (Homo sapiens, UniProt P41145); experiment: KOR radioligand binding ([3H]-U69593, HEK293 cell homogenates); conditions: [3H]-U69593
T2 construct: expressed in transfected cells; host or cells: HEK293 (stably transfected)

MOR (μ opioid receptor) = molecular target: T3, MOR (μ opioid receptor) (Homo sapiens, UniProt P35372); experiment: MOR radioligand binding ([3H]-DAMGO, HEK293 cell homogenates); conditions: [3H]-DAMGO
T3 construct: expressed in transfected cells; host or cells: HEK293

human KOR = molecular target: T4, human KOR (Homo sapiens, UniProt P41145); experiment: BRET recruitment assay (GαoA) in HEK293T cells; assay type: cell-based; conditions: for KOR agonism (in words): BRET recruitment assay
T4 construct: expressed in transfected cells; host or cells: HEK293T
Method: HEK293 cells were transfected with GαoA-RLuc, Gβ3, Gγ8-GFP2 and human KOR and treated with increasing concentrations of GL-I-30 or full agonist salvinorin A.
The BRET recruitment assays were performed in HEK293T cells according to previously reported procedures with minor modifications. Briefly, the cells were co-transfected overnight with GαoA-RLuc, Gβ3, Gγ8-GFP2 and human KOR receptor at a 1:1:1:1 ratio. The next day, cells were seeded (˜40,000 cells/well) into poly-L-Lysine coated 96-well white clear bottom cell culture plates in DMEM containing 1% dialyzed FBS. 24 hours later, the 96-well plates bottom were covered with white backing (PerkinElmer) and the culture medium was removed. Immediately, the cells were washed with 80 μL/well of assay buffer (1× HBSS, 20 mM HEPES, 1 mg/ml BSA, pH 7.4). Then the cells were treated with 80 μL of drugs in assay buffer for 10 min at room temperature, follow by addition of 20 μL/well of RLuc substrate and incubated for another 10 min. Plates were read in a Mithras LB940 reader for the RLuc Luminescence (400 nm) and GFP2 (515 nm) emission and the ratio of GFP2/RLuc (n=24) was analyzed by non-linear regression using GraphPad Prism 8.

HEK293 = experiment: Viability assay (CellTiter-Glo), HEK293; assay type: cell-based, human; conditions: 120 μM, CellTiter-Glo
RAW macrophages [5] = experiment: Cell viability (CellTiter-Glo), RAW macrophages; assay type: cell-based, mouse; conditions: CellTiter-Glo
Mouse microglia [6] = experiment: Cell viability (CellTiter-Glo), mouse microglia; assay type: cell-based; conditions: 50 μM, CellTiter-Glo
In short: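 Mouse microglia (1×10^6 cells/mL) activated with 50 ng/ml LPS plus 150 U/mL IFNγ, incubated with compounds ~24 h at 37° C. Viability of remaining cells read by CellTiter-Glo luminescence after supernatant removal for Griess NO assay; […].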

RAW macrophages [7] = experiment: NO production (Griess assay), LPS/IFNγ-activated RAW264.7 macrophages; assay type: cell-based, mouse; conditions: for Inhibition of NO production (%) RAW macrophages 10 μM: 24 hours, 1 μM GABA, LPS/IFNγ
HEPG2 = experiment: Viability assay (CellTiter-Glo), HEPG2; assay type: cell-based, human; conditions: 120 μM, CellTiter-Glo
Swiss Webster mice [8] = experiment: Rotarod test; conditions: 5 mg/kg
Swiss Webster mice [9] = experiment: Formalin test; assay type: in vivo, mouse; conditions: orally; GL-IV-03 10 mg/kg; ketoprofen 30 mg/kg
Method: Webster mice were treated orally four days in advance with indicated compounds and doses before the injection of 2% formalin in the right hind paw. Mice were evaluated during the first 5 min (phase 1) and after 20 minutes (phase 2) for 5 minutes in 5 seconds intervals Licking and biting the right hind paw during a 5 second interval was noted and combined as total time addressing the injected paw. Data is given as mean with SEM (n =8). ** indicate p<0.01 (unpaired t-test).
The antinociceptive effect of GL-IV-03 was investigated with the formalin test. Paw injections of formalin elicited a biphasic pain response separated in time (1-5 minutes and 20-60 minutes). […] Sensorimotor impairment and sedation were investigated with mice that were trained to balance on a rotating rod over a period of three minutes (rotarod). The amount of time that mice remained balanced on the rod after intraperitoneal (i.p.) and oral (p.o.) treatment with GL-IV-03 and MP-IV-010 is summarized in FIG. 7B-7C. […] The effect was similar to non-steroidal anti-inflammatory drug ketoprofen at 30 mg/kg. Sedation and inhibition of sensorimotor coordination can influence licking and biting pain behaviors, prompting rotarod studies for GL-IV-03 and MP-IV-010. […] In contrast to diazepam, a benzodiazepine with high affinity for the α1β2/3γ2 and other GABAAR subtypes, was sedating at 5 mg/kg.
Formalin test. […]

[10] = Percent inhibition at 10,000 nM

T4 sequence (P41145 whole entry): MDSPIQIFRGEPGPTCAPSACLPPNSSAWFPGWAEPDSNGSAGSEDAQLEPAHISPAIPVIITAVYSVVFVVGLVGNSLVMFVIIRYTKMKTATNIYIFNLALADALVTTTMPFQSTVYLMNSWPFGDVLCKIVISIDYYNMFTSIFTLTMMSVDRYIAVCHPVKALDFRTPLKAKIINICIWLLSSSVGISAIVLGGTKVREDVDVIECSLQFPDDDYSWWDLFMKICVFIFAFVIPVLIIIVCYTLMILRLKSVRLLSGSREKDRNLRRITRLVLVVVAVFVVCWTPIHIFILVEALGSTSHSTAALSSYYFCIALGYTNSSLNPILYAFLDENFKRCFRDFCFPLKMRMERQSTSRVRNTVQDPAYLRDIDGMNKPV
T4 sequence (P09471 2-354 partner limits assumed): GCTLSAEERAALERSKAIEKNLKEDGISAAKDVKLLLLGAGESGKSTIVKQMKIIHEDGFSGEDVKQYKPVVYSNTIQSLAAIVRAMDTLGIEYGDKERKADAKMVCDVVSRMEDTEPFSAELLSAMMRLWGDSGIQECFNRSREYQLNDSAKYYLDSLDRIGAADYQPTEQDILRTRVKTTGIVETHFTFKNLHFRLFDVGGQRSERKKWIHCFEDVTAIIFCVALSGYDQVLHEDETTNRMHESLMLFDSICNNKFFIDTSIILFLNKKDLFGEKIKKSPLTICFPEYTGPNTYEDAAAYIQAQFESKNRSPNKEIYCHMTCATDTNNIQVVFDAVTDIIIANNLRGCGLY
T4 sequence (P16520 whole entry partner): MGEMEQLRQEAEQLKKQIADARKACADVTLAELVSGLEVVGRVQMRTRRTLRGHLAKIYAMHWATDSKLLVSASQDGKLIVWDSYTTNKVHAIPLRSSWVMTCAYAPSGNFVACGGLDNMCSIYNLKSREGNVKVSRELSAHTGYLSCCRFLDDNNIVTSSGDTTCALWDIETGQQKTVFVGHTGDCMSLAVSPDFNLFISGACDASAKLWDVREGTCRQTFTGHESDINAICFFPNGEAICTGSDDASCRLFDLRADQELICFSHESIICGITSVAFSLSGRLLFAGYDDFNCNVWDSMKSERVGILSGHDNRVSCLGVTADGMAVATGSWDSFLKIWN
T4 sequence (Q9UK08 1-67 partner limits assumed): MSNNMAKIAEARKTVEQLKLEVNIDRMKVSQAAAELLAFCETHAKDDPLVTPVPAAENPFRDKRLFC
T2 sequence (P41145 whole entry): as the sequence (P41145 whole entry) above
T3 sequence (P35372 whole entry, species assumed): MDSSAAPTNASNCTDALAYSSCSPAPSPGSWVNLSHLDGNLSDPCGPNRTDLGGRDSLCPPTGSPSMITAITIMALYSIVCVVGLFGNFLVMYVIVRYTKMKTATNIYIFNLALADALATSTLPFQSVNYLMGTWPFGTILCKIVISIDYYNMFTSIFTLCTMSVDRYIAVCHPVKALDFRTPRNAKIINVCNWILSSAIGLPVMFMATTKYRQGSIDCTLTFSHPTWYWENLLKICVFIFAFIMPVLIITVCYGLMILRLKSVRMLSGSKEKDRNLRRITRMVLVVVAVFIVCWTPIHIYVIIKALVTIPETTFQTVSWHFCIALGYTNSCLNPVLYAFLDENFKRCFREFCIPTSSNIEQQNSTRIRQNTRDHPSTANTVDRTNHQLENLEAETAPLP
T1 sequence (P41143 whole entry): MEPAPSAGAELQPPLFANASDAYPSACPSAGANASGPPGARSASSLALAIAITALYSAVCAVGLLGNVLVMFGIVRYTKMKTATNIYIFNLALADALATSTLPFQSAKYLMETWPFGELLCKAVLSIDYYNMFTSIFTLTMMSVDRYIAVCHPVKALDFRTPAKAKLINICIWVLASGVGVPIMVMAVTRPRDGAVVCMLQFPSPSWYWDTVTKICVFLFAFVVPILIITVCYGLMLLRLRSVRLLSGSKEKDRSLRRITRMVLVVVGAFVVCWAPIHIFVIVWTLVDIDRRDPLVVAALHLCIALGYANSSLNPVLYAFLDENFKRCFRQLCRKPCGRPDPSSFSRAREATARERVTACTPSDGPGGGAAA

**Q.** What does the source list for `NCCCC(=O)O` [GABA]?
**A.** maximum current response [1]: 1514 pA; NO production of activated microglia (in words) (Mouse microglia [2]; dexamethasone 100 nM, GABA 1 μM, MP-IV-010 50 μM, GL-II-33 in the library screen): no effect; maximum current response [3]: 1245 pA

**Q.** How did the DOR % (DOR (δ opioid receptor)) turn out when `C#Cc1ccc2c(c1)C(c1ccccc1F)=NC(C)c1c(C(=O)OC(C)(C)C)ncn1-2` (stereo not drawn) [GL-I-30] was run?
**A.** 7%

**Q.** What about the BZR % [4, 10] of the same compound?
**A.** 96%

**Q.** And the Ki [4]?
**A.** 177 nM

**Q.** And the KOR % (KOR (κ opioid receptor); [10])?
**A.** 95%

**Q.** And the Ki (KOR (κ opioid receptor); concentration-dependent, read-out: KOR (Ki))?
**A.** 27 nM

**Q.** And the MOR % (MOR (μ opioid receptor); [10])?
**A.** 54%

**Q.** What about the Ki (MOR (μ opioid receptor); read-out: MOR affinity Ki) of the same compound?
**A.** 1850 nM

**Q.** What about the “KOR agonism (in words)” value (human KOR) of the same compound?
**A.** full KOR agonism

**Q.** And the “KOR agonism (in words)” value (human KOR; listed as GL-1-30)?
**A.** full KOR agonist

**Q.** And the “efficacy in comparison to full agonist salvinorin A” value (human KOR; BRET, HEK293T cells)?
**A.** 100%

**Q.** And the EC50 (human KOR; BRET, HEK293T cells, read-out: EC50, recruitment of GαoA protein to KOR)?
**A.** 32.3 nM

**Q.** How did the “Cell viability (%) HEK293 120 μM” value (HEK293) turn out when `CCOC(=O)c1ncn2c1CN=C(c1ccccn1)c1cc(C3CC3)ccc1-2` [GL-IV-05] was run?
**A.** 47 ± 3%

**Q.** What about the “Cell viability (%) RAW macrophages 50 μM” value (RAW macrophages [5]) of the same compound?
**A.** 100 ± 6%

**Q.** What about the “Inhibition of NO production (%) Mouse microglia 10 μM” value (Mouse microglia [2]) of the same compound?
**A.** 59 ± 4%

**Q.** And the “Cell viability (%) Mouse microglia 50 μM” value (Mouse microglia [6])?
**A.** 88 ± 12%

**Q.** What about the “Inhibition of NO production (%) RAW macrophages 10 μM” value (RAW macrophages [7]) of the same compound?
**A.** 14 ± 3%

**Q.** And the “Cell viability (%) HEPG2 120 μM” value (HEPG2)?
**A.** 100 ± 10%

**Q.** How did the “Cell viability (%) HEK293 120 μM” value (HEK293) turn out when `C#Cc1ccc2c(c1)C(c1ccccc1F)=NC(C)c1c(C(=O)[O-])ncn1-2.[Na+]` (stereo not drawn) [GL-IV-17] was run?
**A.** 67 ± 5%

**Q.** What about the “Cell viability (%) RAW macrophages 50 μM” value (RAW macrophages [5]) of the same compound?
**A.** 100 ± 5%

**Q.** What about the “Inhibition of NO production (%) Mouse microglia 10 μM” value (Mouse microglia [2]) of the same compound?
**A.** 41 ± 5%

**Q.** What about the “Cell viability (%) Mouse microglia 50 μM” value (Mouse microglia [6]) of the same compound?
**A.** 89 ± 9%

**Q.** And the “Inhibition of NO production (%) RAW macrophages 10 μM” value (RAW macrophages [7])?
**A.** 5 ± 5%

**Q.** What about the “Cell viability (%) HEPG2 120 μM” value (HEPG2) of the same compound?
**A.** 93 ± 8%

**Q.** `CC1N=C(c2ccccc2F)c2cc(Br)ccc2-n2cnc(C(=O)[O-])c21.[Na+]` (stereo not drawn) [GL-IV-18] was tested. Which “Cell viability (%) HEK293 120 μM” value (HEK293) did it give?
**A.** 88 ± 5%

**Q.** What about the “Cell viability (%) RAW macrophages 50 μM” value (RAW macrophages [5]) of the same compound?
**A.** 98 ± 5%

**Q.** What about the “Inhibition of NO production (%) Mouse microglia 10 μM” value (Mouse microglia [2]) of the same compound?
**A.** 63 ± 9%

**Q.** What about the “Cell viability (%) Mouse microglia 50 μM” value (Mouse microglia [6]) of the same compound?
**A.** 81 ± 10%

**Q.** And the “Inhibition of NO production (%) RAW macrophages 10 μM” value (RAW macrophages [7])?
**A.** 10 ± 7%

**Q.** What about the “Cell viability (%) HEPG2 120 μM” value (HEPG2) of the same compound?
**A.** 80 ± 14%

**Q.** `C#Cc1ccc2c(c1)C(c1ccccc1F)=N[C@H](C)c1c(-c3nc(CC)no3)ncn1-2` [MP-IV-005, (R)-3-ethyl-5-(8-ethynyl-6-(2-fluorophenyl)-4-methyl-4H-benzo[f]imidazo[1,5-a][1,4]diazepin-3-yl)-1,2,4-oxadiazole] was tested. Which “Cell viability (%) HEK293 120 μM” value (HEK293) did it give?
**A.** 68 ± 14%

**Q.** And the “Cell viability (%) RAW macrophages 50 μM” value (RAW macrophages [5])?
**A.** 86 ± 14%

**Q.** And the inhibition at 10 µM (Mouse microglia [2]; Mus musculus, Microglia, 24 h)?
**A.** 45 ± 3%

**Q.** What about the inhibition at 50 µM (Mouse microglia [2]; Mus musculus, Microglia, 24 h) of the same compound?
**A.** 89 ± 17%

**Q.** And the “Cell viability (%) Mouse microglia 50 μM” value (Mouse microglia [6])?
**A.** 86 ± 13%

**Q.** What about the inhibition at 10 µM (RAW macrophages [7]; Mus musculus, Macrophage, 24 h) of the same compound?
**A.** 5 ± 3%

**Q.** What about the inhibition at 50 µM (RAW macrophages [7]; Mus musculus, Macrophage, 24 h) of the same compound?
**A.** 59 ± 9%

**Q.** And the “Cell viability (%) HEPG2 120 μM” value (HEPG2)?
**A.** 98 ± 8%

**Q.** What does the source list for `C#Cc1ccc2c(c1)C(c1ccccc1)=NCC(=O)N2C` [QH-II-66]?
**A.** Cell viability (%) HEK293 120 μM (HEK293): 81 ± 2%; Cell viability (%) RAW macrophages 50 μM (RAW macrophages [5]): 100 ± 12%; Inhibition of NO production (%) Mouse microglia 10 μM (Mouse microglia [2]): 54 ± 9%; Cell viability (%) Mouse microglia 50 μM (Mouse microglia [6]): 97 ± 11%; Inhibition of NO production (%) RAW macrophages 10 μM (RAW macrophages [7]): 17 ± 6%; Cell viability (%) HEPG2 120 μM (HEPG2): 100 ± 4%

**Q.** Which “sedation (rotarod)” value (Swiss Webster mice [8]) does the source give for `CN1C(=O)CN=C(c2ccccc2)c2cc(Cl)ccc21` [diazepam, reference compound] here?
**A.** sedating

**Q.** `CC(C(=O)O)c1cccc(C(=O)c2ccccc2)c1` (stereo not drawn) [ketoprofen, reference compound] was tested. Which “antinociceptive effect, formalin test (phase 1 and 2)” value (Swiss Webster mice [9]) did it give?
**A.** similar
